From publication PMC7503464 (Molecules, 2020)

Columns and labels:
Test in all cases: biochemical
[1] = target: T1, dihydrofolate reductase (DHFR; wt-DHFR and midW mutants) (Escherichia coli, UniProt P0ABQ4, W133F/W30F/W47F/W74F)
T1 construct: gene folA
Excerpt: (§1) isothermal titration calorimetry on dihydrofolate reductase (DHFR; wt-DHFR and midW mutants)

[2] = target: T2, dihydrofolate reductase (DHFR; wt-DHFR and midW mutants) (Escherichia coli, UniProt P0ABQ4, W22F/W30F/W47F/W74F)
T2 construct: gene folA
Excerpt: as §1

[3] = target: T3, dihydrofolate reductase (DHFR; wt-DHFR and midW mutants) (Escherichia coli, UniProt P0ABQ4, W133F/W22F/W47F/W74F)
T3 construct: gene folA
Excerpt: as §1

[4] = target: T4, dihydrofolate reductase (DHFR; wt-DHFR and midW mutants) (Escherichia coli, UniProt P0ABQ4, W133F/W22F/W30F/W74F)
T4 construct: gene folA
Excerpt: as §1

[5] = target: T5, dihydrofolate reductase (DHFR; wt-DHFR and midW mutants) (Escherichia coli, UniProt P0ABQ4, W133F/W22F/W30F/W47F)
T5 construct: gene folA
Excerpt: as §1

SMILES: Nc1nc2ncc(CNc3ccc(C(=O)N[C@@H](CCC(=O)O)C(=O)O)cc3)nc2c(=O)[nH]1 [folate]
- Kd [1]: 3.7 µM
- Kd [2]: 9.5 µM
- Kd [3]: 4.5 µM
- Kd [4]: 12 µM
- Kd [5]: 8.4 µM
